For one series, the system named is red blood cells. As to conditions: in the first 1-2 minutes; cited from earlier work.
For series [1] the following is noted: at 37° C.; cited from earlier work.
A short description of series [2]: Charcoal MTZ adsorption kinetics study (PMD and direct donor sampling). Type of series: physicochemical. Conditions: 37° C., first minute after charcoal addition. As to the method: A charcoal suspension was prepared at least 24 hours before use by adding 0.6 g of activated charcoal (Sigma Chemical, St. Louis, Mo.) to 100 mL of 0.6% Dextran Solution (Birkmeier et al., 1995). A donor solution of MTZ in 0.005N NaOH was made with an initial concentration of C0=200 μg/mL and volume of 48 mL. A probe was immersed in the solution, and PMD was started before adding the charcoal using a dialysate that initially contained no MTZ. Samples were collected every 10 seconds, using a resting time of 8 seconds, a flow rate of 100 μL/min, and a sample volume of 5 μL. After collecting at least six samples, 2 mL of the charcoal suspension was quickly (in 1-2 seconds) mixed into 48 mL of stirred MTZ solution, giving a final volume of 50 mL. […] Samples were collected during 10 second intervals, and the start times for the sampling intervals were 0, 0.2, 0.4, 0.7, 1, 2, 5, 10 and 30 minutes. The flow rate was 100 μL/min, the rest time was 8 seconds, and the sample volume was 5 μL. The samples were immediately analyzed using HPLC. […] Direct sampling of the donor was also done at various times for comparison with the PMD data. The direct donor samples were immediately filtered to remove the activated charcoal and analyzed using HPLC.

The nature of series [3]: Benzocaine release from self-emulsifying microemulsion systems by PMD. The class given is physicochemical. Conditions: occupying the probe window for one minute; Tween 20:Cremophor EL:peppermint oil systems diluted 1:25 in water. As for the experimental part:
The medium outside the probe served as the receiver in this case. Before the PMD experiments, various anhydrous liquid systems were made, to be used to release benzocaine. In all cases, two surfactants, Tween 20 and Cremophor EL (both from Sigma Chemical, St. Louis, Mo.), were blended in a 2:1 (weight:weight) ratio. Various amounts of peppermint oil were added (from 0 to 30% oil by weight) to make the anhydrous systems. Benzocaine (50 mg per gram of peppermint oil) was subsequently added to each system, and stirring was done until all benzocaine was dissolved and distributed within the oil and surfactant blend. These anhydrous systems were then diluted 1:25 in water, and used as the dialysate. A probe was immersed in 50 mL of water (which served as the receiver) that initially contained no drug. Since benzocaine is a weak base, various pH values were used, but the pH of the water and dialysate were the same in all cases. The dialysate (containing the microemulsions and acting as the donor) was pumped into the probe window, allowed to remain at rest for various resting times (5-100 seconds), pumped out and collected, and subsequently assayed for benzocaine content to determine the fraction of benzocaine lost as a function of the total time in the probe window. The flow rate Q was 100 μL/min and the sample volume was 5 μL.

The structures appear in SMILES notation.

Regarding `CC(=O)/N=c1/sc(S(N)(=O)=O)nn1C` [MTZ, methazolamide], the “decrease of buffer concentration by uptake into red blood cells” value in the series on red blood cells is 50%. For the same compound, in series [1], the “diffusion coefficient (value of the reference drug)” value is listed as 4×10^−6 cm^2/s. Moreover, the “decline of concentration during the first minute” value in series [2] was roughly 50%.

On to `CCOC(=O)c1ccc(N)cc1` [benzocaine], for which the “benzocaine lost from microemulsion dialysate” value in series [3] is on record as no more than 90%.

Source of the values: US8652087B2, “Method for use of microdialysis” (priority 2009, dated 2014).
